Experimental data reported in publication PMC9177597, “Structural basis of substrate recognition and translocation by human very long-chain fatty acid transporter ABCD1” (Nature Communications, 2022).

Key:
chABCD1 (chimeric ABCD1) [1] = biological target: T1, chABCD1 (chimeric ABCD1) (Homo sapiens, UniProt P33897); test: ATPase assay (colorimetric Pi release); assay type: biochemical; conditions: varying ATP, with or without C22:0-CoA, 2 mM MgCl2, LMNG + CHS, pH 7.5, 37 °C; Michaelis-Menten fit
T1 construct: single polypeptide: N-terminal FLAG tag, PMP-4 residues 1-65 replacing human ABCD1 residues 1-63, then human ABCD1 64-745; HEK293F; homodimer; LMNG/CHS for assays, digitonin for cryo-EM; with PMP-4 (peroxisomal membrane protein related, ABCD1 homolog, Caenorhabditis elegans; N-terminal segment fused to the target chain)
T1 sequence (P33897 64-745): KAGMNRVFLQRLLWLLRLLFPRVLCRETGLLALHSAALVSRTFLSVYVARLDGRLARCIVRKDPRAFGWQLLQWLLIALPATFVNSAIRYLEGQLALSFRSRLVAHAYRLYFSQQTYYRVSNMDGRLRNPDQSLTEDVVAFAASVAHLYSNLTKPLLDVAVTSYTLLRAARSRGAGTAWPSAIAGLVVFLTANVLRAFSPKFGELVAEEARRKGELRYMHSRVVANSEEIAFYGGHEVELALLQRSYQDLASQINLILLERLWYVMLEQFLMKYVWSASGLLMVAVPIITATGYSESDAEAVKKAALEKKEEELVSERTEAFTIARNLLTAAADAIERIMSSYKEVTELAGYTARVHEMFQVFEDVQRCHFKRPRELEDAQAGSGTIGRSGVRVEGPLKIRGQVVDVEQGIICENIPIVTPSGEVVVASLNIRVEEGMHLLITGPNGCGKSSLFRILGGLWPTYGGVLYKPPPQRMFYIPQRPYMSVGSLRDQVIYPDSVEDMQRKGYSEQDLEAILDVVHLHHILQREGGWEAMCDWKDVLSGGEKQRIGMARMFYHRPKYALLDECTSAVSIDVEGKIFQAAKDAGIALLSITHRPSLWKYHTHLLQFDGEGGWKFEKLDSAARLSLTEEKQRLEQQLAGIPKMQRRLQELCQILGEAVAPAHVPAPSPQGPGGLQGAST

chABCD1 (chimeric ABCD1) [2] = biological target: T1, chABCD1 (chimeric ABCD1); test: substrate-stimulated ATPase assay (colorimetric Pi release); assay type: biochemical
[3] = biological target: chimeric ABCD1, C-terminal helix truncated variant (ΔGlu694-Thr745) (Caenorhabditis elegans | human) (UniProt O45730)

EC50 (chABCD1 (chimeric ABCD1) [2]) [µM]	Molecule	further results
	Nc1ncnc2c1ncn2[C@@H]1O[C@H](COP(=O)(O)OP(=O)(O)OP(=O)(O)O)[C@@H](O)[C@H]1O [ATP]	Km (chABCD1 (chimeric ABCD1) [1]): The data points were fitted with a Michaelis-Menten equation
~2	CCCCCCCCCCCCCCCCCCCCCCCCCC(=O)SCCNC(=O)CCNC(=O)[C@H](O)C(C)(C)COP(=O)(O)OP(=O)(O)OC[C@H]1O[C@@H](n2cnc3c(N)ncnc32)[C@H](O)[C@@H]1OP(=O)(O)O [C26:0-CoA]	
~2	CCCCCCCCCCCCCCCCCCCCCCCC(=O)SCCNC(=O)CCNC(=O)[C@H](O)C(C)(C)COP(=O)(O)OP(=O)(O)OC[C@H]1O[C@@H](n2cnc3c(N)ncnc32)[C@H](O)[C@@H]1OP(=O)(O)O [C24:0-CoA]	
	chimeric ABCD1, C-terminal helix truncated variant (ΔGlu694-Thr745) (from UniProt O45730 1-65; P33897 64-693)	Vmax of C22:0-CoA-stimulated ATPase activity (LMNG + CHS, 2 mM ATP) (mol Pi/min/mol protein) [3]: 17.5
